Assay [1] has as its system Escherichia coli. Nature of the assay: Antibacterial activity against Escherichia coli assessed as inhibition zone at 10 mg/ml. In kind it is functional. As to conditions: read-out: IZ.
In the next assay the test system is Salmonella typhi. Nature of the assay: Antibacterial activity against Salmonella typhi assessed as inhibition zone at 10 mg/ml. As to conditions: Salmonella enterica, read-out: IZ. The assay is classed as functional, Salmonella enterica subsp. enterica serovar Typhi.
A further assay relates to Klebsiella pneumoniae. As to the kind of experiment: Antibacterial activity against Klebsiella pneumoniae assessed as inhibition zone at 10 mg/ml. The assay is classed as functional. The following applies: read-out: IZ.
A further assay relates to Proteus vulgaris. As to the kind of experiment: Antibacterial activity against Proteus vulgaris assessed as inhibition zone at 10 mg/ml. As to conditions: read-out: IZ. In kind it is functional.
Assay [2] concerns Pseudomonas aeruginosa. As to the kind of experiment: Antibacterial activity against Pseudomonas aeruginosa assessed as inhibition zone at 10 mg/ml. The following applies: read-out: IZ. In kind it is functional.
Assay [3] deals with Staphylococcus epidermidis. Nature of the assay: Antibacterial activity against Staphylococcus epidermidis MTCC 6880 by serial dilution method. The assay is classed as functional.
The test system of the next assay is Candida albicans. As to the kind of experiment: Antibacterial activity against Candida albicans MTCC 227 by serial dilution method. In kind it is functional.
The test system of assay [4] is Pseudomonas aeruginosa. As to the kind of experiment: Antibacterial activity against Pseudomonas aeruginosa MTCC 424 by serial dilution method. In kind it is functional.
For assay [5], the system named is Escherichia coli. As to the kind of experiment: Antibacterial activity against Escherichia coli MTCC […] by serial dilution method. The assay is classed as functional.
The subject of another assay is Aspergillus niger. Nature of the assay: Antibacterial activity against Aspergillus niger MTCC 8189 by serial dilution method. The assay is classed as functional.
Another assay deals with Bacillus subtilis. Nature of the assay: Antibacterial activity against Bacillus subtilis MTCC 441 by serial dilution method. In kind it is functional.

Converted amounts (≈) assume the structure as drawn.

Regarding `Cc1ccc2nc(Cl)c(Cn3cc(COc4ccccc4Cl)nn3)cc2c1`, the zone of inhibition at 10000 µg/mL with Escherichia coli [1], with Salmonella typhi, in the assay on Klebsiella pneumoniae, with Proteus vulgaris and in the assay on Pseudomonas aeruginosa [2] was 7 mm in each case.
For `COc1ccc2nc(Cl)c(Cn3cc(COc4ccc([N+](=O)[O-])cc4)nn3)cc2c1`, the zone of inhibition at 10000 µg/mL with Escherichia coli [1], in the assay with Salmonella typhi, in the assay with Klebsiella pneumoniae, with Proteus vulgaris and in the assay on Pseudomonas aeruginosa [2] was 7 mm in each case.
As for `Clc1nc2ccccc2cc1Cn1cc(COc2ccccc2)nn1`, the zone of inhibition at 10000 µg/mL in the assay on Escherichia coli [1], with Salmonella typhi, in the assay on Klebsiella pneumoniae, in the assay on Proteus vulgaris and in the assay on Pseudomonas aeruginosa [2] was 7 mm in each case.
Regarding `COc1ccc(-n2cc(COc3ccc(/C=C/C(=O)c4c(O)cc(C)oc4=O)cc3)nn2)cc1`, the MIC (in assay [3]; in the assay with Candida albicans; against Pseudomonas aeruginosa [4]; against Escherichia coli [5]; against Aspergillus niger; with Bacillus subtilis) was 3.4 µM (≈ 1.56 µg/mL) throughout.
Turning to `O=[N+]([O-])c1ccc(OCc2cn(Cc3cc4ccccc4nc3Cl)nn2)cc1`, the zone of inhibition at 10000 µg/mL in the assay on Escherichia coli [1], with Salmonella typhi, in the assay with Klebsiella pneumoniae, in the assay on Proteus vulgaris and with Pseudomonas aeruginosa [2] was 7 mm in each case.
For the molecule `Cc1ccc(OCc2cn(Cc3cc4cc(C)ccc4nc3Cl)nn2)cc1`, the zone of inhibition at 10000 µg/mL in the assay on Escherichia coli [1], in the assay with Salmonella typhi, in the assay with Klebsiella pneumoniae, with Proteus vulgaris and with Pseudomonas aeruginosa [2] was 7 mm in each case.
Turning to `Cc1cc(O)c(C(=O)/C=C/c2ccc(OCc3cn(-c4ccccc4)nn3)cc2)c(=O)o1`, the MIC (in assay [3]; against Candida albicans; with Pseudomonas aeruginosa [4]; against Escherichia coli [5]; with Aspergillus niger; against Bacillus subtilis) was 3 µM (≈ 1.29 µg/mL) each time.
For the molecule `COc1ccc2nc(Cl)c(Cn3cc(COc4ccc(Cl)c(C)c4)nn3)cc2c1`, the zone of inhibition at 10000 µg/mL in the assay with Escherichia coli [1], in the assay with Salmonella typhi, with Klebsiella pneumoniae, with Proteus vulgaris and in the assay on Pseudomonas aeruginosa [2] was 7 mm each time.
For `COc1ccc2nc(Cl)c(Cn3cc(COc4ccccc4)nn3)cc2c1`, the zone of inhibition at 10000 µg/mL in the assay with Escherichia coli [1], in the assay on Salmonella typhi, with Klebsiella pneumoniae, in the assay on Proteus vulgaris and in the assay on Pseudomonas aeruginosa [2] was 7 mm throughout.
Turning to `Cc1cc(OCc2cn(Cc3cc4ccccc4nc3Cl)nn2)ccc1Cl`, the zone of inhibition at 10000 µg/mL with Escherichia coli [1], in the assay with Salmonella typhi, in the assay on Klebsiella pneumoniae, in the assay with Proteus vulgaris and in the assay with Pseudomonas aeruginosa [2] was 7 mm in each case.
`CC(=O)Nc1ccc(OCc2cn(Cc3cc4cc(C)ccc4nc3Cl)nn2)cc1`: the zone of inhibition at 10000 µg/mL in the assay with Escherichia coli [1], with Salmonella typhi, in the assay on Klebsiella pneumoniae, in the assay on Proteus vulgaris and in the assay with Pseudomonas aeruginosa [2] was 7 mm throughout.
As to `Clc1ccccc1OCc1cn(Cc2cc3ccccc3nc2Cl)nn1`, the zone of inhibition at 10000 µg/mL with Escherichia coli [1], with Salmonella typhi, with Klebsiella pneumoniae, in the assay with Proteus vulgaris and with Pseudomonas aeruginosa [2] was 7 mm each time.
Regarding `CC(=O)Nc1ccc(OCc2cn(Cc3cc4ccccc4nc3Cl)nn2)cc1`, the zone of inhibition at 10000 µg/mL in the assay with Escherichia coli [1], in the assay with Salmonella typhi, in the assay with Klebsiella pneumoniae, in the assay with Proteus vulgaris and with Pseudomonas aeruginosa [2] was 7 mm in each case.
As for `Cc1ccc(OCc2cn(Cc3cc4ccccc4nc3Cl)nn2)cc1`, the zone of inhibition at 10000 µg/mL with Escherichia coli [1], in the assay with Salmonella typhi, with Klebsiella pneumoniae, in the assay on Proteus vulgaris and with Pseudomonas aeruginosa [2] was 7 mm throughout.
As to `COc1ccc2nc(Cl)c(Cn3cc(COc4ccc(C)cc4)nn3)cc2c1`, the zone of inhibition at 10000 µg/mL in the assay with Escherichia coli [1], in the assay with Salmonella typhi, in the assay on Klebsiella pneumoniae, with Proteus vulgaris and in the assay on Pseudomonas aeruginosa [2] was 7 mm in each case.
Turning to `Cc1ccc2nc(Cl)c(Cn3cc(COc4ccc([N+](=O)[O-])cc4)nn3)cc2c1`, the zone of inhibition at 10000 µg/mL with Escherichia coli [1], with Salmonella typhi, in the assay on Klebsiella pneumoniae, in the assay on Proteus vulgaris and with Pseudomonas aeruginosa [2] was 7 mm each time.
As for `COc1ccc2nc(Cl)c(Cn3cc(COc4ccc(NC(C)=O)cc4)nn3)cc2c1`, the zone of inhibition at 10000 µg/mL in the assay with Escherichia coli [1], with Salmonella typhi, in the assay with Klebsiella pneumoniae, in the assay with Proteus vulgaris and in the assay with Pseudomonas aeruginosa [2] was 7 mm each time.
Turning to `COc1ccc2nc(Cl)c(Cn3cc(COc4ccccc4Cl)nn3)cc2c1`, the zone of inhibition at 10000 µg/mL with Escherichia coli [1], in the assay on Salmonella typhi, with Klebsiella pneumoniae, in the assay with Proteus vulgaris and with Pseudomonas aeruginosa [2] was 7 mm each time.
On to `Cc1ccc2nc(Cl)c(Cn3cc(COc4ccc(Cl)c(C)c4)nn3)cc2c1`, for which the zone of inhibition at 10000 µg/mL in the assay on Escherichia coli [1], in the assay on Salmonella typhi, with Klebsiella pneumoniae, in the assay on Proteus vulgaris and in the assay on Pseudomonas aeruginosa [2] was 7 mm throughout.
As to `COc1ccc2nc(Cl)c(Cn3cc(COc4ccc(Cl)cc4)nn3)cc2c1`, the zone of inhibition at 10000 µg/mL in the assay with Escherichia coli [1], in the assay on Salmonella typhi, in the assay on Klebsiella pneumoniae, in the assay on Proteus vulgaris and in the assay on Pseudomonas aeruginosa [2] was 7 mm each time.
Regarding `Clc1ccc(OCc2cn(Cc3cc4ccccc4nc3Cl)nn2)cc1`, the zone of inhibition at 10000 µg/mL with Escherichia coli [1], in the assay on Salmonella typhi, with Klebsiella pneumoniae, with Proteus vulgaris and with Pseudomonas aeruginosa [2] was 7 mm in each case.
Turning to `Cc1ccc2nc(Cl)c(Cn3cc(COc4ccc(Cl)cc4)nn3)cc2c1`, the zone of inhibition at 10000 µg/mL in the assay on Escherichia coli [1], in the assay on Salmonella typhi, with Klebsiella pneumoniae, with Proteus vulgaris and in the assay on Pseudomonas aeruginosa [2] was 7 mm throughout.
Take `Cc1ccc2nc(Cl)c(Cn3cc(COc4ccccc4)nn3)cc2c1`: the zone of inhibition at 10000 µg/mL with Escherichia coli [1], with Salmonella typhi, in the assay with Klebsiella pneumoniae, in the assay with Proteus vulgaris and with Pseudomonas aeruginosa [2] was 7 mm throughout.

Broadly, the MIC is the smallest concentration in the dilution series that meets the test's criterion for growth inhibition.
